Measurements taken from patent US20210085640A1, “ACYLATED CATECHIN POLYPHENOLS AND METHODS OF THEIR USE FOR THE TREATMENT OF CANCER” (Flagship Pioneering Innovations V, Inc., priority 2018, published 2021).

Legend:
Format in all cases: cell-based
T24 bladder cancer cells = test: Cancer cell survival (CellTiter-Glo), T24; settings: Homo sapiens
Summary of the method: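 Viability by CellTiter-Glo after 72 h compound treatment of T24 bladder cancer cells (4×10^3/well, plated the night before), nine concentration levels in triplicate. Percent survival normalised to untreated cells minus medium background, from which IC50 was determined.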

[1] = system: Daudi lymphoma cancer cells; test: Cancer cell survival (CellTiter-Glo), Daudi; settings: Homo sapiens, 72 h
Summary of the method: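 Daudi cells (4×10^3/well) were exposed for 72 h at 37 °C to nine concentrations of compound, added as 10× solutions spanning 1 μM–10 mM (fatty acids) or 100 nM–1 mM (others). CellTiter-Glo luminescence gave % survival versus untreated, medium-blank corrected; IC50 derived.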

MCF7 breast cancer cells = test: Cancer cell survival (CellTiter-Glo), MCF7; settings: Homo sapiens, 72 h
Summary of the method: (§1)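 CellTiter-Glo luminescence after 72 h compound exposure (37 C, 5% CO2; nine concentration levels, triplicate) of overnight-plated cells at 4×10^3 per well. IC50 calculated from survival % relative to untreated cells after medium-background subtraction.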

[2] = system: HCT 116 colorectal cancer cells; test: Cancer cell survival (CellTiter-Glo), HCT 116; settings: Homo sapiens, HCT 116 cells, 72 h
Summary of the method: as §1

A549 lung cancer cells = test: Cancer cell survival (CellTiter-Glo), A549; settings: Homo sapiens, 72 h
Summary of the method: as §1

[3] = system: PC-3 prostate cancer cells; test: Cancer cell survival (CellTiter-Glo), PC-3; settings: Homo sapiens, PC-3 cells, 72 h
Summary of the method: as §1

A-431 skin cancer cells = test: Cancer cell survival (CellTiter-Glo), A-431; settings: Homo sapiens, A-431 cells, 72 h
Summary of the method: as §1

AGS stomach cancer cells = test: Cancer cell survival (CellTiter-Glo), AGS
Summary of the method: as §1

[4] = Human Regulatory T Cell Differentiation Assay; settings: human, primary naïve CD4+ T cells isolated from PBMCs, 1 uM, read-out: Cell viability % DMSO
Experimental: Peripheral blood mononuclear cells (PBMCs) from whole blood donated by health volunteers were separated by Ficoll-Paque gradient centrifugation and naïve CD4^+ T cells were subsequently isolated using magnet beads (EasySep™ Human Naïve CD4^+ T Cell Isolation Kit, Cambridge, Mass.). For regulatory T cell (Treg) differentiation assay, naïve CD4^+ T cells were cultured (1-10×10^4 cells) in CTS OpTmizer medium for 6 days and stimulated with 5 ng/ml TGF-β, 100 U/ml IL-2, and ImmunoCult™ Human […] T Cell Activator; Stemcell #10990) with/without Compounds. Cell viability was determined using a viability dye (eBioscience Fixable Viability Dye eFluor 780: ThermoFisher 65-0865-14) at 1:500 dilution. The cells were gated for Treg, defined as Live, CD11c^−, CD14^−, CD19^−, CD8^−, CD4^+, CD3^+, CD25^+, FOXP3^+. Percent (%) Tregs were calculated as percentage of CD4^+, CD25^+, FOXP3^+ cells over total CD4^+ T cells. Statistical analysis was performed with GraphPad Prism Software Using One-Way ANOVA.

[5] = 101 nM, read-out: Cell survival at given concentration
[6] = 318 nM, read-out: Cell survival at given concentration
[7] = 1 μM, read-out: Cell survival at given concentration
[8] = 3 μM, read-out: Cell survival at given concentration
[9] = 10 μM, read-out: Cell survival at given concentration
[10] = 32 μM, read-out: Cell survival at given concentration
[11] = 100 μM, read-out: Cell survival at given concentration
[12] = 316 μM, read-out: Cell survival at given concentration
[13] = 1000 μM, read-out: Cell survival at given concentration

Oc1ccc(C=Cc2cc(O)cc(O)c2)cc1 [resveratrol]
viability at 0.101 µM (T24 bladder cancer cells; T-24, 101 nM, 72 h, read-out: Cell survival at given concentration): 100% | viability at 0.318 µM (T24 bladder cancer cells; T-24, 318 nM, 72 h, read-out: Cell survival at given concentration): 102% | viability at 1 µM (T24 bladder cancer cells; T-24, 1 μM, 72 h, read-out: Cell survival at given concentration): 100% | viability at 3 µM (T24 bladder cancer cells; T-24, 3 μM, 72 h, read-out: Cell survival at given concentration): 101% | viability at 10 µM (T24 bladder cancer cells; T-24, 10 μM, 72 h, read-out: Cell survival at given concentration): 92% | viability at 32 µM (T24 bladder cancer cells; T-24, 32 μM, 72 h, read-out: Cell survival at given concentration): 1% | viability at 100 µM (T24 bladder cancer cells; T-24, 100 μM, 72 h, read-out: Cell survival at given concentration): 0% | viability at 316 µM (T24 bladder cancer cells; T-24, 316 μM, 72 h, read-out: Cell survival at given concentration): 0% | viability at 1000 µM (T24 bladder cancer cells; T-24, 1000 μM, 72 h, read-out: Cell survival at given concentration): 0% | IC50 (T24 bladder cancer cells; T-24, 72 h, Table 3.1, read-out: 1050): 15.1 µM | viability at 0.101 µM [1, 5]: 100% | viability at 0.318 µM [1, 6]: 101% | viability at 1 µM [1, 7]: 102% | viability at 3 µM [1, 8]: 102% | viability at 10 µM [1, 9]: 101% | viability at 32 µM [1, 10]: 14% | viability at 100 µM [1, 11]: 0% | viability at 316 µM [1, 12]: 0% | viability at 1000 µM [1, 13]: 0% | IC50 ([1]; Table 4.1): 23.9 µM | viability at 0.101 µM (MCF7 breast cancer cells; [5]): 94% | viability at 0.318 µM (MCF7 breast cancer cells; [6]): 96% | viability at 1 µM (MCF7 breast cancer cells; [7]): 99% | viability at 3 µM (MCF7 breast cancer cells; [8]): 99% | viability at 10 µM (MCF7 breast cancer cells; [9]): 95% | viability at 32 µM (MCF7 breast cancer cells; [10]): 96% | viability at 100 µM (MCF7 breast cancer cells; [11]): 85% | viability at 316 µM (MCF7 breast cancer cells; [12]): 27% | viability at 1000 µM (MCF7 breast cancer cells; [13]): 0% | IC50 (MCF7 breast cancer cells; Table 5.1): 212 µM | viability at 0.101 µM [2, 5]: 103% | viability at 0.318 µM [2, 6]: 98% | viability at 1 µM [2, 7]: 98% | viability at 3 µM [2, 8]: 101% | viability at 10 µM [2, 9]: 98% | viability at 32 µM [2, 10]: 65% | viability at 100 µM [2, 11]: 0% | viability at 316 µM [2, 12]: 0% | viability at 1000 µM [2, 13]: 0% | IC50 ([2]; Table 6.1): 37.4 µM | viability at 0.101 µM (A549 lung cancer cells; [5]): 98% | viability at 0.318 µM (A549 lung cancer cells; [6]): 99% | viability at 1 µM (A549 lung cancer cells; [7]): 98% | viability at 3 µM (A549 lung cancer cells; [8]): 98% | viability at 10 µM (A549 lung cancer cells; [9]): 98% | viability at 32 µM (A549 lung cancer cells; [10]): 96% | viability at 100 µM (A549 lung cancer cells; [11]): 88% | viability at 316 µM (A549 lung cancer cells; [12]): 50% | viability at 1000 µM (A549 lung cancer cells; [13]): 0% | IC50 (A549 lung cancer cells; Table 7.1): 317 µM | viability at 0.101 µM [3, 5]: 101% | viability at 0.318 µM [3, 6]: 102% | viability at 1 µM [3, 7]: 101% | viability at 3 µM [3, 8]: 102% | viability at 10 µM [3, 9]: 103% | viability at 32 µM [3, 10]: 96% | viability at 100 µM [3, 11]: 95% | viability at 316 µM [3, 12]: 32% | viability at 1000 µM [3, 13]: 0% | IC50 ([3]; Table 8.1): 248 µM | viability at 0.101 µM (A-431 skin cancer cells; [5]): 101% | viability at 0.318 µM (A-431 skin cancer cells; [6]): 101% | viability at 1 µM (A-431 skin cancer cells; [7]): 102% | viability at 3 µM (A-431 skin cancer cells; [8]): 102% | viability at 10 µM (A-431 skin cancer cells; [9]): 98% | viability at 32 µM (A-431 skin cancer cells; [10]): 87% | viability at 100 µM (A-431 skin cancer cells; [11]): 65% | viability at 316 µM (A-431 skin cancer cells; [12]): 13% | viability at 1000 µM (A-431 skin cancer cells; [13]): 0% | IC50 (A-431 skin cancer cells; Table 9.1): 132 µM | viability at 0.101 µM (AGS stomach cancer cells; 72 h, 101 nM, read-out: Cell survival at given concentration): 100% | viability at 0.318 µM (AGS stomach cancer cells; 72 h, 318 nM, read-out: Cell survival at given concentration): 95% | viability at 1 µM (AGS stomach cancer cells; 72 h, 1 μM, Table 10.1, read-out: Cell survival at given concentration): 101% | viability at 3 µM (AGS stomach cancer cells; 72 h, 3 μM, Table 10.1, read-out: Cell survival at given concentration): 98% | viability at 10 µM (AGS stomach cancer cells; 72 h, 10 μM, Table 10.1, read-out: Cell survival at given concentration): 100% | viability at 32 µM (AGS stomach cancer cells; 72 h, 32 μM, Table 10.1, read-out: Cell survival at given concentration): 101% | viability at 100 µM (AGS stomach cancer cells; 72 h, 100 μM, Table 10.1, read-out: Cell survival at given concentration): 94% | viability at 316 µM (AGS stomach cancer cells; 72 h, 316 μM, read-out: Cell survival at given concentration): 33% | viability at 1000 µM (AGS stomach cancer cells; 72 h, 1000 μM, read-out: Cell survival at given concentration): 0% | IC50 (AGS stomach cancer cells; Table 10.1): 252 µM | viability at 6 days, 1 µM [4]: < 90%
